Measured values reported in patent US12139472B2, “Inhibitors of advanced glycation end products” (priority 2019, dated 2024).
pIC50: −log10 of the molar value.

Legend:
CYP2B6 = target: T1, CYP2B6 (Homo sapiens, UniProt P20813); type: in vitro ADME; conditions: microsomes
T1 construct: Two studies were conducted in human liver microsomes (HLM); tissue Eurofins G232 panel; host or cells: human liver microsomes
T1 sequence (P20813 1-491): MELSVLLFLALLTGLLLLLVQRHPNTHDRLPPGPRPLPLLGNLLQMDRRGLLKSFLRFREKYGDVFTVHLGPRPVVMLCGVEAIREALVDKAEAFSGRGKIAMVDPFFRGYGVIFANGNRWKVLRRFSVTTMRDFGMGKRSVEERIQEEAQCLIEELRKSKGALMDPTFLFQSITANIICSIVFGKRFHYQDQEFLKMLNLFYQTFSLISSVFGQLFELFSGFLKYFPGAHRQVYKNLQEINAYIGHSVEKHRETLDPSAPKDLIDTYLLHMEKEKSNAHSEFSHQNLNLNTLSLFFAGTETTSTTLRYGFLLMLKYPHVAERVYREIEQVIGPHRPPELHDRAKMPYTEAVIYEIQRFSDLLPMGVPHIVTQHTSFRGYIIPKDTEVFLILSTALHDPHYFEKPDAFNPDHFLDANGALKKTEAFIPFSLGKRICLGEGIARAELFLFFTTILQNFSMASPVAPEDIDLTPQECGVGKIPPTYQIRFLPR
Experimental: (§1) Compound 5 (PTG-630 free base) and 7 additional compounds for CYP3A P450 inhibition.
(§2) Two studies were conducted in human liver microsomes (HLM). Lead candidate PTG-630 was tested using the Eurofins G232 panel (Drug Metab Dispos. 2001 January; 29(1):23-9), where inhibition was measured against seven CYP enzymes; CYP3A4 was tested using two different substrates, midazolam and testosterone. In a second study, inhibition of CYP3A4 (midazolam substrate only) was compared for 8 compounds of interest. The test protocol involved one-point measurements in duplicate, where inhibition was measured at a fixed 10 μM concentration of candidate inhibitors. In all cases, the substrate for each CYP enzyme was at a concentration equal to its specific Km value that was independently obtained from an 8-point dose-response study. Based on the observed value for percent inhibition for each test compound, we calculated of an IC50 assuming a competitive mode of inhibition. If percent inhibition for an inhibitor at a concentration of [I] is denoted by P, then: IC50=[I]*(100−P)/P In the single-point assay, [I] is 10 μM. If measured inhibition is 10%, then IC50=10*(100-10)/10=90 μM. […] As discussed in Lin et al. (J Pharm Sci. 2007 September; 96(9):2485-93; doi: 10.1002/jps.20884), CYP inhibition is broadly interpreted as being “potent” if IC50<1 μM, “moderate” if 1 μM<IC50<10 μM, and “weak” if IC50>10 μM.

[1] = Pharmacokinetic study for PTG-630 (IV and PO): plasma, whole blood, tissues, urine; type: in vivo, Sprague Dawley rats
Experimental: The samples were analyzed in two batches with standards and QCs prepared on rat plasma and rat urine. Analyst® 1.6 (SCIEX) software was used for statistical analysis of bioanalytical data. […] Dose samples collected at 0.083 h-6 h postdose were diluted 4 times with SD rat plasma prior to plating. Twenty-four (24) hours plasma samples were assayed without dilution. […] Two sciatic nerve samples were excluded from analysis, due to the insufficient sample size. […] The 12 non-cannulated animals were arbitrarily assigned to groups upon arrival and housed together throughout the experiment. The animals were acclimated to their designated housing for at least 24 hours before the first day of dosing. […] Blood samples were collected via cannula from IV dosed rats or by cardiac stick from PO dosed rats at the specified time points for sampling pharmacokinetics. Blood was collected into K2EDTA tubes. Tubes were mixed gently after blood collection, chilled and centrifuged at 3000 rpm, 4° C. within 30 minutes upon collection. The samples were centrifuged at 4° C. and the resultant plasma separated. […] Urine from Group 1 was collected via polycarbonate tubes from rats placed in drug metabolism cages. Urine was maintained and room temperature through the collection period.

CYP3A = type: in vitro ADME, human; conditions: HLM
From the text: as §1
Imidazole (and benzimidazole) containing drugs are ubiquitous in pharmacological practice; however, drug-drug interactions (DDI) have been observed with some imidazole-containing classes, such as the antifungal azoles typified by ketoconazole. It is believed that the imidazole moiety accounts for their ability to inhibit CYP3A, the major DDI enzyme that metabolizes up to 50% of common drugs. The compounds of the disclosure incorporate an imidazole moiety attached to a pyridine ring via the imidazole C-2. They all share an imidazo-hydroxypyridine theme that can bind redox metal ions, while differing in the nature of the X side-chain. The potential of the compounds of the disclosure for DDI was evaluated by screening their inhibition of CYP3A.
as §2

[2] = plasma, PO 100 mg/kg vs IV 5 mg/kg

Cc1ncc(CN2CCOCC2)c(-c2ncc[nH]2)c1O [PTG-630]
pIC50 (CYP2B6): 3.67 | P % inhib (CYP2B6): 4.5% | fold decrease in AUClast for PO route over IV route [1, 2]: 4 fold | fold decrease in mean Cmax for PO route over IV route [1, 2]: 17 fold | Mean Residence Time (MRT) in plasma, single IV versus PO group ([1]; rat, in vivo): comparable | bioavailable, PO route, based on AUCinf ([1]; rat, in vivo): < 1% | increase in the half-life in plasma, IV route in comparison with PO route ([1]; rat, in vivo): 4.25 folds | terminal phase half-life ([1]; rat, in vivo, iv): 15.8 h | AUClast ([1]; rat, in vivo, iv, 5 mg/kg): 34000 ng·h/mL | Cmax ([1]; rat, in vivo, iv, 5 mg/kg): 20,400 ng/mL | AUC last in liver higher than in plasma ([1]; rat, in vivo, po): 2.6 folds | Elimination phase half-life (t1/2) ([1]; rat, in vivo, po): 1.35 h | Half-life ([1]; rat, in vivo, po): 4.53 h | Tmax in tissues ([1]; rat, in vivo, po): 1 h | absorption in tissues (in words) ([1]; rat, in vivo, po): rapidly absorbed in tissues without delay | detection in tissues 24 hours postdose ([1]; rat, in vivo, po): not detectable in any tissue, except plasma | exposure in kidney higher than in plasma, based on Cmax ([1]; rat, in vivo, po): 3.4 folds | exposure in liver higher than in plasma, based on Cmax ([1]; rat, in vivo, po): 5.47 folds | exposure in muscle (lowest) versus plasma ([1]; rat, in vivo, po): comparable to those in plasma | half-life ([1]; rat, in vivo, po): 3.71 h | half-life in brain relative to plasma (times higher) ([1]; rat, in vivo, po): 1.3 times | level of exposure in selected tissues exceeds the exposure in plasma (up to) ([1]; rat, in vivo, po): 3-5 folds | quantifiable in tissues ([1]; rat, in vivo, po): quantifiable in all tested tissues | AUClast ([1]; rat, in vivo, po, 100 mg/kg): 8600 ng·h/mL | blood brain permeability (in words) ([1]; rat, po): indicating blood brain permeability | Estimated IC50 (CYP3A; midazolam, from one-point % inhibition at 10 μM, IC50=[I]*(100−P)/P): — None | P % inhib (CYP3A; substrate midazolam at Km, Inhib Conc. 1.0E−05 M): −12.1%
